Columns and labels:
LD50 in albino rats = details: rat, in vivo, albino rats of 20±1 g
rats = test: Open field experiment, explorative activity of rat puppies on the 21st day of life; format: in vivo
Protocol: (§1) The study has been performed with 16 couples of the rats Charles River in their reproductive age, selected by uniform weight. On the third day of gestation they have been arbitrarily divided into 4 groups. […] Dietetic treatment have been continued during the entire periods of gestation and nursing.
(§2) Between the 14th and the 21st day of the life, the puppies of the 2nd and the 4th group have been treated with 20 mg/kg of CMP-NANA (Sigma Chemical Co.) i.p., the 1st and the 3rd group have been treated with the equal volume of physiological solution.
(§3) On the 21st day two male puppies from each group have been fixed on the holed table and for 20 minutes placed under the open field experiment. The periods related to the explorative activity have been observed and quantified. At the end of the experiment, the animals have been sacrified by decapitation, and their brains have been removed and examined for the content of the gangliosides (extractions performed by the method of G. Tettamanti et al., Biochim. Biophys. Acta 296, 160-170 (1973) as well as of the glycoproteins (extractions by the method of B. Berra et al., in Membranes in Tumor Growth, Galeotti et al., Eds., Elsevier, pp. 81-87, 1982; F. Omodeo Sale et al., Cell Mol. Biol. 27, 455-458, 1981).

Cerebral gangliosides = Cerebral gangliosides content (NANA) in rats on the 21st day of life; format: in vivo, rat
Excerpt: The study has been performed with 16 couples of the rats Charles River in their reproductive age, selected by uniform weight. On the third day of gestation they have been arbitrarily divided into 4 groups. The two first groups have been fed with a semisynthetic diet that contained 10% of casein. Dietetic treatment have been continued during the entire periods of gestation and nursing.
as §2, §3
(§4) In both cases the content of NANA has been determined.

Cerebral glycoproteins = Cerebral glycoproteins content (NANA) in rats on the 21st day of life; format: in vivo, rat
Protocol: as §1, §2, §3, §4

Striatal gangliosides = test: Levels of striatal gangliosides of the rat following injuries by kainic acid; format: in vivo
Protocol: Male rats, Charles River CD, body weight of 180-200 g, have been divided into 4 groups, each group having 20 animals. The first group has been classified as the control group, the second group has been treated with physiological solution, the third group has been treated with kainic acid and the fourth group has been treated with CMP-NANA (20 mg/kg/day, i.p.) and kainic acid.
The treatment with CMP-NANA has been started one week before the treatment with kainic acid and has been continued until the animals have been sacrified.
The animals have been anesthetized with pentobarbital (60 mg/kg i.p.) and then treated with kainic acid (2 μg in 1 μl of the physiological solution), that has been injected into striatum.
The control rats have been treated with an equal volume (1 μl) of the physiological solution.
After 7 days the rats have been sacrified and the striatum has been removed. Each single determination has been performed with the pool of 5 samples. The gangliosides have been extracted and determined (as NANA content) as described previously.

Neuro-2a cells = test: CMP-NANA-induced neurite formation (sprouting) in cultured cells; format: cell-based
Protocol: Neuro-2a cells (American Type Culture Collection, Rockville, USA) were seeded at standard conditions (10^4 -10^6 cells/100 mm dish). Incubation time for quantification of sprouting was 24 hours. Thereafter fixation of the cells was performed by means of 3% glutaraldehyde containing buffered saline. Quantitative determination of nerve cell growth was performed with Zeiss D-7082 Micreo-Videomat.
Neurite sprouting was used as the parameter for nerve cell differentiation. The samples fixed in formaline were stained for better contrast.

[1] = system: Neuro-2a neurine neuroblastoma; test: In vitro neuronal maturation, index of maturation of neuroblastoma cells; format: cell-based; details: for Index of maturation (I.M.): standard media 10 ± 2, I.M. = L.P. × N.P.
Protocol: Neuro-2a neurine neuroblastoma (American Type Culture Collection-CCL 131) was grown in the medium consisting of fecal calf serum (Irvine Scientific, Irvine, Ca.), to which non-essential amino acids, antibiotic (5-20 mg %), and bicarbonate (50-100 mg %), were added. The cells were grown routinely on corning plastic tissue-culture flasks.
Cells for assay were plated on corning plastic Petri dishes, in the medium with or without CMP-NANA. In order to examine the role of CMP-NANA on in vitro neuron maturation, it was incorporated into the culture media at the time of plating or 24 or 48 hours postplating. The mean number and length of cell processes were repeatedly determined for a minimum of 100 cells per treatment group, to provide a semiquantitative index of neuron maturation (Table 5).
Index of maturation (I.M.) in Table 5 is expressed as: I.M.=L.P.×N.P., where:
L.P. 10:=the length of process to nearest 10μ
N.P.=Total number of processes
The effects of the various concentrations of CMP-NANA were evaluated with high resolution Nomarski optics.

Storage stability = format: physicochemical; details: powder, -10° C.
Protocol: A 20 ml aliquot (containing about 8000 units of the enzyme) of the enzyme, CTP (4-5 mmol), N-acetylneuraminic acid (1 mmol) were added in portions, during 2 hours, to the solution (200 ml) of Tris-buffer, Mg^+2, and β-thio-propionic acid. The last three components were present in the concentrations 0.4, 0.04, and 0.002M, respectively. The mixture was incubated at 36°±0.2° C. for 6 hours, then diluted 8 times with water and rised slowly through a column of Dowex 1×4, bicarbonate form, 50-100 mesh (0.6 l resin/mmol of I). First washing was performed with 1 mM ammonium hydroxide, then with 3-4 vol. of a linear gradient from 0.02-2.0M triethylammonium hydrogencarbonate, pH 7.8.

Acid hydrolysis at pH 1 = format: physicochemical; details: pH 1, 10 min, room temperature
Protocol: [α]D =-11.8° (c=0.2, water).

[2] = normal and hypoproteinic diet, 20 mg/kg i.p.

SMILES: CC(=O)N[C@H]1[C@H]([C@H](O)[C@H](O)CO)O[C@](OP(=O)(O)OC[C@H]2O[C@@H](n3ccc(N)nc3=O)[C@H](O)[C@@H]2O)(C(=O)O)C[C@@H]1O [CMP-NANA, cytidine monophosphate of 5-acetamido-3,5-dideoxy-D-glycero-D-galactononulosaminic acid]
- LD50 (LD50 in albino rats; ip, intraperitoneal): 900 mg/kg
- LD50 (LD50 in albino rats; po, per os): 2400 mg/kg
- Explorative activity (rats; Group 2: 20% casein + CMP-NANA 20 mg/kg i.p., relative to 2nd group = 100% (reference), p < 0.01-0.001 vs nontreatment (Group 1: 47)): 100%
- Explorative activity (rats; Group 4: 10% casein + CMP-NANA 20 mg/kg i.p., relative to 2nd group = 100%, p < 0.01-0.001 vs nontreatment (Group 3: 12)): 52%
- explorative activity (in words) (rats; [2]): inhanced in statistically significant manner
- Cerebral gangliosides (Cerebral gangliosides; Group 2: 20% casein + CMP-NANA 20 mg/kg i.p., relative to 2nd group = 100% (reference), p < 0.01-0.001 vs nontreatment (Group 1: 75)): 100%
- Cerebral gangliosides (Cerebral gangliosides; Group 4: 10% casein + CMP-NANA 20 mg/kg i.p., relative to 2nd group = 100%, p < 0.01-0.001 vs nontreatment (Group 3: 41)): 68%
- NANA content in the cerebral gangliosides (in words) (Cerebral gangliosides; [2]): inhanced in statistically significant manner
- Cerebral glycoproteins (Cerebral glycoproteins; Group 2: 20% casein + CMP-NANA 20 mg/kg i.p., relative to 2nd group = 100% (reference), p < 0.01-0.001 vs nontreatment (Group 1: 79)): 100%
- Cerebral glycoproteins (Cerebral glycoproteins; Group 4: 10% casein + CMP-NANA 20 mg/kg i.p., relative to 2nd group = 100%, p < 0.01-0.001 vs nontreatment (Group 3: 69)): 75%
- NANA content in the cerebral glycoproteins (in words) (Cerebral glycoproteins; [2]): inhanced in statistically significant manner
- level of gangliosides in the striatum (in words) (Striatal gangliosides; CMP-NANA 20 mg/kg/day i.p. with kainic acid): hindered the diminuation of the level of gangliosides in the striatum
- Striatal gangliosides (NANA content) (Striatal gangliosides; Group 4: kainic acid (2 μg into striatum) and CMP-NANA 20 mg/kg/day i.p., relative to control = 100%): 88%
- sprouting of the nerves (in words) (Neuro-2a cells; 50 μg/ml): nearly doubled
- dose-response relationship for number of neurites (in words) (Neuro-2a cells; 5-50 μg/ml, 24 hours): close dose-response relationship
- increase of sprouting above the original steady-state value (Neuro-2a cells; 30 μ/ml (so in the source)): ~50%
- activity at 5 µg/mL (Neuro-2a cells; Mus musculus, N2a, 5 μg/ml, 24 hours, 0 μg/ml = 100 ± 15, read-out: Extent of sprouting): 110 ± 15%
- activity at 10 µg/mL (Neuro-2a cells; Mus musculus, N2a, 10 μg/ml, 24 hours, 0 μg/ml = 100 ± 15, read-out: Extent of sprouting): 117 ± 20%
- activity at 20 µg/mL (Neuro-2a cells; Mus musculus, N2a, 20 μg/ml, 24 hours, 0 μg/ml = 100 ± 15, read-out: Extent of sprouting): 132 ± 25%
- activity at 30 µg/mL (Neuro-2a cells; Mus musculus, N2a, 30 μg/ml, 24 hours, 0 μg/ml = 100 ± 15, read-out: Extent of sprouting): 145 ± 30%
- activity at 50 µg/mL (Neuro-2a cells; Mus musculus, N2a, 50 μg/ml, 24 hours, 0 μg/ml = 100 ± 15, read-out: Extent of sprouting): 178 ± 35%
- change of I.M. versus standard media (in words) ([1]; 2 μg/ml): doubled
- change of I.M. versus standard media (in words) ([1]; 20 μg/ml): ten time higher
- Index of maturation (I.M.) ([1]; SM + 1 μg/ml): 20 ± 5
- Index of maturation (I.M.) ([1]; SM + 5 μg/ml): 45 ± 5
- Index of maturation (I.M.) ([1]; SM + 10 μg/ml): 68 ± 10
- Index of maturation (I.M.) ([1]; SM + 20 μg/ml): 92 ± 10
- storage stability (Storage stability): at least one year
- hydrolysis in acid (Acid hydrolysis at pH 1): affording CMP and N-acetylneuraminic acid (1.0:1.0 mol)

— patent US4704361A, “Pharmaceutical compositions containing the cytidine monophospate of 5-acetamido-3,5-dideoxy-D-glycero-D-galactononulosaminic acid and a method for preparing said compound” (Compagnia di Ricerca Chimica S.p.A., priority 1983, dated 1987)
